Experimental data from patent publication US6960594B2, “Thiophene and furan 2,5-dicarboxamides useful in the treatment of cancer” (Shire BioChem Inc., priority 1998, dated 2005).

Experiments:
[1] = target: T1, placental αvβ3 (Homo sapiens, UniProt P05106+P06756); test: Fibrinogen binding to immobilized αvβ3
T1 construct: placental αvβ3 at 0.5 ug/mL; from tissue; host or cells: placenta
Protocol: (§1) The wells of plastic microtiter plates were coated overnight at 4° C. with purified active αIIbβ3 (Calbiochem) or placental αvβ3 at 0.5 ug/mL (100 uL/well) in a buffer containing 150 mM NaCl, 20 mM Tris, pH 7.4, 1 mM MgCl2, 0.2 mM MnCl2, and including 1 mM CaCl2 for αIIbβ3. Blocking of nonspecific sites was achieved by incubating the wells with 35 mg/mL bovine serum albumin (BSA) for at least 2 hours at 37° C. Biotinylated-fibrinogen (10 nM) was added in 0.2 mL binding buffer (100 mM NaCl, 50 mM Tris, pH 7.4, 1 mM MgCl2, 0.2 mM MnCl2 and 1 mg/mL BSA including 1 mM CaCl2 for αIIbβ3) to the wells in triplicate in the absence or presence of increasing concentrations of compounds of interest (0.001-100 uM) and further incubated for 2 hours at 37° C. Nonbound fibrinogen was removed by five washes with binding buffer. Avidin conjugated to alkaline phosphatase (Sigma), diluted in binding buffer, was added and incubated for two hours at 37° C. The plates were washed five times with binding buffer, and after addition of the substrate PNPP (Pierce), the enzyme activity was measured by the absorbance at 405 nm.

[2] = target: T2, GP IIb-IIIa (αIIbβ3) (Homo sapiens, UniProt P05106+P08514); test: Fibrinogen binding to immobilized GP IIb-IIIa (αIIbβ3)
T2 construct: purchased Calbiochem
Protocol: as §1

[3] = target: T3, αvβ3 (Homo sapiens, UniProt P05106+P06756); test: Cell adhesion assay, K562-tr on osteopontin; assay type: cell-based
T3 construct: expressed in transfected cells; host or cells: K562
Protocol: The wells of 96-well plates (Immunolon) were coated, by incubation overnight at 4° C., with 5 ug/mL vitronectin, 2 ug/mL osteopontin, or fibronectin or 10 mg/mL BSA in PBS. The protein solution was flicked out and the wells were blocked with 10 mg/mL BSA (0.1 mL) for 1-2 hours at 37° C. […] Cells were lifted with trypsin-EDTA and washed two times with Hank's balanced salt solution minus cations (Sigma) supplemented with 1 mM MgCl2 Cells (75,000 cells/well) were added to coated plates in triplicate and allowed to attach at 37° C. for 1 hour in the presence or absence of specific antibodies (5 ug/mL) or 10-fold dilutions of compounds of interest starting at 10 uM. Nonadherent cells were removed by gentle washing twice with PBS. The adherent cells were solubilized with 1% triton x-100 and detected using a fluorescence plate reader (DYNEX Technologies). The number of attached cells was calculated based upon standard curves for each cell line used in the experiment.

[4] = tested on: HMVEC; test: Cell proliferation and cytotoxicity MTT assay, HMVEC; assay type: cell-based; details: HMVEC, 72 hours culture
Protocol: The wells of microtiter plates were seeded with 2000 cells/well T24, 2500 cells/well HT29 or 5000 cells/well HMVEC (Cell Systems) in 100 uL, followed by an overnight culture for cell adhesion. The next day, the media is supplemented with 100 uL of 10-fold dilution of compound of interest starting at 10 uM. Following culture for 72 hours, 3-(4,5-dimethyl-2-thiazolyl)-2,5-diphenyltetrazolium bromide (MTT; Sigma) at 2 mg/mL was added to each well (50 uL/well) and further incubated for 4 hours at 37° C. The medium was flicked out and 200 uL of a 1:1 solution of ethanol:acetone followed by 25 uL of glycine buffer (0.1 M glycine, 0.1M NaCl, pH 10.5) is added and the color measured by the absorbance at 570 nm.

[5] = tested on: Chick chorioallantoic membrane (CAM) capillary formation driven by VPF/VEGF165; test: Chick chorioallantoic membrane (CAM) mesh assay; assay type: in vivo, chicken; details: significant if >25%
Protocol: Fertilized white leghorn chicken eggs (SPAFAS Inc., Norwich, Conn.) were received at day 0 and incubated for 3 days at 37 C with constant humidity. On day 3, eggs were rinsed with 70% ethanol and opened into 100 mm^2 tissue culture coated Petri dishes under aseptic conditions. The embryos were then returned to a humidified 38 C incubator for 7-9 additional days.
Vitrogen (Collagen Biomaterials, Palo Alto, Calif.) at a final concentration of 0.73 mg/mL and Matrigel (Becton Dickinson, Bedford, Mass.) at a final concentration of 10 mg/mL was directly pipetted onto Nylon meshes with 250 μm^2 openings which were cut into 4 mm×4 mm squares and autoclaved. Polymerization of meshes were under aseptic conditions, on bacteriological Petri dishes. The polymerization conditions for each substrate were identical; after mixing with or without 250 μg of VPF/VEGF165 (Peprotech, Rocky Hill, N.J.) and/or compounds of interest, 40 μL were pipetted onto each mesh in a bacteriological Petri dish. The Petri dish was placed in a humidified 37 C incubator with 5% CO2 for 30 minutes to allow polymerization followed by an incubation at 4° C. for 2 hours.
In a tissue culture enclosure, meshes were placed onto the periphery of the CAM of a day 12-14 embryo, excluding areas containing major vessels. The embryos were then returned to the humidified 38° C. incubator with 3% CO2 for 24 to 48 additional hours.
Embryos were removed from the incubator and meshes were viewed under a dissecting microscope for gross evaluation. Injection of 400 μL FITC dextran, MW 2,000,000 (Sigma, St. Louis, Mo.) through glass microcapillary tubes by infusion into the umbilical vein was performed at a rate of 200 μl per minute. The FITC dextran was allowed to circulate for 5 minutes and 3.7% formaldehyde in PBS was applied directly on each mesh. The embryos were then incubated at 40° C. for 5 minutes and the meshes were dissected off the CAM and fixed in 3.7% formaldehyde for 10 minutes to overnight.
After fixation, meshes were mounted on slides with 90% glycerol in PBS and visualized on an inverted fluorescence microscope. A Nikon Diaphot with a Sony DXC-151A camera attached to the side port was used for capture of images and analysis was with the NIH Image 1.61 software program. For each mesh, 5 random staggered images (approximately 600 μm each) were captured. The areas of high intensity were highlighted and measured. Results are expressed as ability to suppress capillary formation after subtraction from negative control. Values were calculated as a inhibition, considering 100% the capillary density achieved by VPF in the presence of vitrogen alone minus the bakground levels in the absence of VPF. Negative values indicated angiogenic stimulation above the VPF positive control.

T2 sequence (P08514 32-887 limits assumed): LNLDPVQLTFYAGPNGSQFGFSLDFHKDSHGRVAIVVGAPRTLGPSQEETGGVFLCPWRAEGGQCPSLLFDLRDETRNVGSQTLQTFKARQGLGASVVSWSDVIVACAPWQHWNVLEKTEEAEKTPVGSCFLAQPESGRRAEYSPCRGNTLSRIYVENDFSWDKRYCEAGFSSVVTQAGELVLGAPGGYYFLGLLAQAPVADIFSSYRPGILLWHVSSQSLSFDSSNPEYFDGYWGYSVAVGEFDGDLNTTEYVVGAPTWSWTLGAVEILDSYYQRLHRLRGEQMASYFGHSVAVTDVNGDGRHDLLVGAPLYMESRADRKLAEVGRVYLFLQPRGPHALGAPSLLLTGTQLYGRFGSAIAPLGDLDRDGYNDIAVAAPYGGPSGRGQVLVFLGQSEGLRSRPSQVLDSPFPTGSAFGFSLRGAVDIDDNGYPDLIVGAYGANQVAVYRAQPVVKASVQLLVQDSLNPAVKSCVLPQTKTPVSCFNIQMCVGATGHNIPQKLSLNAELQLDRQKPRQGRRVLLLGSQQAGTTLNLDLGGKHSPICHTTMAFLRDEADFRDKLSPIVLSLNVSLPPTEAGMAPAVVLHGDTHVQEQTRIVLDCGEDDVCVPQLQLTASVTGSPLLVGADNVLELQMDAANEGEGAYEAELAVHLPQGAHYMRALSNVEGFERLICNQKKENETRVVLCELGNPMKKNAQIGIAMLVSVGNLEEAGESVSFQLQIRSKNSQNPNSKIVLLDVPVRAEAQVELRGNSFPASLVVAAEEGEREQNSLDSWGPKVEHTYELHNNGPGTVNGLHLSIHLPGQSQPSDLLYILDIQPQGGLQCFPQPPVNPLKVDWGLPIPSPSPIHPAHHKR
T2 sequence (P08514 891-1039 partner limits assumed): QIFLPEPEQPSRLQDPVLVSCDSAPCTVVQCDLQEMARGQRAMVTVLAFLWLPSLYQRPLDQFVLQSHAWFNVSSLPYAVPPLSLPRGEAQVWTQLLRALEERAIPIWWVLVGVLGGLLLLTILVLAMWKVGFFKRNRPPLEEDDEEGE
T2 sequence (P05106 27-788): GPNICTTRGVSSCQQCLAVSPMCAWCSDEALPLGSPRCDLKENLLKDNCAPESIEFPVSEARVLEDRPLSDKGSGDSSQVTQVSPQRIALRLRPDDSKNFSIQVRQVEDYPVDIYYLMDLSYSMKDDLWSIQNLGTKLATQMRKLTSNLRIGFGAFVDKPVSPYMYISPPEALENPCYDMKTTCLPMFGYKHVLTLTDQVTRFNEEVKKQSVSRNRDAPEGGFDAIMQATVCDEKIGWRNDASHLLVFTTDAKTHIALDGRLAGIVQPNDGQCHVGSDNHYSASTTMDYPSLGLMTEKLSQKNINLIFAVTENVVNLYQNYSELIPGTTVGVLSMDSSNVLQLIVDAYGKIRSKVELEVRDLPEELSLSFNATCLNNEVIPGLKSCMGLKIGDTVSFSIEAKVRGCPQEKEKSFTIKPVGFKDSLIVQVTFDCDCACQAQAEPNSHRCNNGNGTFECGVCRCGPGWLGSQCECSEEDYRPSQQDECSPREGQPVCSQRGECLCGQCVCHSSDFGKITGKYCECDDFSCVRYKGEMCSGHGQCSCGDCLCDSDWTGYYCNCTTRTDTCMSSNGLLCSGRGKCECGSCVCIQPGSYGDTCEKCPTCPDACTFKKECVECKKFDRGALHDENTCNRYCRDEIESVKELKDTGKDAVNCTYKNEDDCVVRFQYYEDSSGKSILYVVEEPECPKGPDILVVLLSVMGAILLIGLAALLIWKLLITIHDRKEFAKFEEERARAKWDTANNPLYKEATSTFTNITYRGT
T3 sequence (P06756 31-889 limits assumed): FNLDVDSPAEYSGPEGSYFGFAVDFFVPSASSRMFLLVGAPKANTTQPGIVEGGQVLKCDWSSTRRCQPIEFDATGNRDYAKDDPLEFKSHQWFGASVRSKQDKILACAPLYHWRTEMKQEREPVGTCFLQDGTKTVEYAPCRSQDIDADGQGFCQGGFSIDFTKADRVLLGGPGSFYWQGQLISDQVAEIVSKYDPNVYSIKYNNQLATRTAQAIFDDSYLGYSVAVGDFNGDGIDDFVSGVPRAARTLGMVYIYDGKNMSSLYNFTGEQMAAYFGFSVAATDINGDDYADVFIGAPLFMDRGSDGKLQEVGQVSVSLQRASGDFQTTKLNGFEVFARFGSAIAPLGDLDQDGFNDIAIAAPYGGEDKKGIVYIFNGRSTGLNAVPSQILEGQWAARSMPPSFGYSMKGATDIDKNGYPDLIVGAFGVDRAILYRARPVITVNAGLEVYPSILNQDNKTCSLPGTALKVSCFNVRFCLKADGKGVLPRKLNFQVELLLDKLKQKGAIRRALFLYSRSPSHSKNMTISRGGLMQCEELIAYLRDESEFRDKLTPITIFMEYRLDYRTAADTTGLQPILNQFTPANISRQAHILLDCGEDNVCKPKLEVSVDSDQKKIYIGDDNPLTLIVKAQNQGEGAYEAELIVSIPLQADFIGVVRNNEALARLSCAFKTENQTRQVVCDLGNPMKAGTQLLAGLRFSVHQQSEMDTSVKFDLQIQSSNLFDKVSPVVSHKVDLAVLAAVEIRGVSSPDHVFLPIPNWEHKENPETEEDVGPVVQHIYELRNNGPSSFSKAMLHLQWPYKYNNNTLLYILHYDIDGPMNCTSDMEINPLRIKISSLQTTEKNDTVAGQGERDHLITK
T3 sequence (P06756 891-1048 partner limits assumed): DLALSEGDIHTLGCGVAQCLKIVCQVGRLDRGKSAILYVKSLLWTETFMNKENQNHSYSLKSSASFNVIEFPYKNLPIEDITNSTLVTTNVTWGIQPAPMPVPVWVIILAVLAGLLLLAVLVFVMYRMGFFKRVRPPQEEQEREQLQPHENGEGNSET
T3 sequence (P05106 27-788): as the sequence (P05106 27-788) above
T1 sequence (P06756 31-889 limits assumed): as the sequence (P06756 31-889 limits assumed) above
T1 sequence (P06756 891-1048 partner limits assumed): as the sequence (P06756 891-1048 partner limits assumed) above
T1 sequence (P05106 27-788): as the sequence (P05106 27-788) above

SMILES: NCCCNC(=O)c1ccc(C(=O)NC(CC(=O)O)c2ccccc2)s1.O=C(O)C(F)(F)F (centres unmarked) [Compound VII, 3-{[5-(3-Amino-propylcarbamoyl)-thiophene-2-carbonyl]-amino}-3-phenyl-propionic acid trifluoroacetic acid salt]
- IC50 [1]: 6.6 µM
- IC50 [2]: 13.7 µM
- IC50 [3]: > 10 µM
- IC50 [4]: > 10 µM
- % of inhibition at 33 μg/mesh in the presence of VEGF [5]: 34%
